PubChem BioAssay (NCI)
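Interpolation was linear, between the two tested concentrations surrounding the appropriate level; five concentrations were tested over 48 hours in 96-well plates. GI50 = concentration required for 50% inhibition of growth. TGI: total growth inhibition.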

system: HOP-62 NSCLC; assay: NCI tumour cell line growth inhibition, 48 h

O=[n+]1c(CBr)c(CBr)n([O-])c2ccccc21 showed a GI50 of 17.8 µM.

For O=[n+]1c(CBr)c(CBr)n([O-])c2ccccc21, the TGI was 37.5 µM.

system: HOP-92 NSCLC; assay: NCI tumour cell line growth inhibition, 48 h

Compared with CC(C)CCNC(=O)c1ccc(CNC(=O)/C=C/c2ccc(OCc3ccccc3)cc2)cc1, COc1ccccc1NC(=O)c1ccc(/C=C/C(=O)c2nccn2C)cc1 is lower in TGI: over 100 µM for the first, 5.01 µM for the second.

Compared with O=C1c2ccccc2C(=O)c2c1ccc1[nH]c(CCl)nc21, O=[n+]1c(CBr)c(CBr)n([O-])c2ccccc21 is 2.8-fold higher in TGI: 6.26 µM for the first, 17.8 µM for the second.

First: COc1ccccc1NC(=O)c1ccc(/C=C/C(=O)c2nccn2C)cc1
Second: O=C1c2ccccc2C(=O)c2c1ccc1[nH]c(CCl)nc21
The GI50 of the first is 2.3-fold lower: 0.673 µM for the first, 1.58 µM for the second.

Compound O=[n+]1c(CBr)c(CBr)n([O-])c2ccccc21 has a GI50 of 4.61 µM.

system: HS 578T breast; assay: NCI tumour cell line growth inhibition, 48 h

Compared with COc1ccccc1NC(=O)c1ccc(/C=C/C(=O)c2nccn2C)cc1, O=C1c2ccccc2C(=O)c2c1ccc1[nH]c(CCl)nc21 is 2.7-fold higher in GI50: 1.1 µM for the first, 2.94 µM for the second.

Work on O=[n+]1c(CBr)c(CBr)n([O-])c2ccccc21 yielded a GI50 of 17 µM.

COc1ccccc1NC(=O)c1ccc(/C=C/C(=O)c2nccn2C)cc1 and O=C1c2ccccc2C(=O)c2c1ccc1[nH]c(CCl)nc21 are within 1.5-fold of each other in TGI: 9.8 µM for the first, 14.7 µM for the second.

With O=[n+]1c(CBr)c(CBr)n([O-])c2ccccc21 the TGI was 45.3 µM.

system: HT29 colon; assay: NCI tumour cell line growth inhibition, 48 h

Going from CC(C)CCNC(=O)c1ccc(CNC(=O)/C=C/c2ccc(OCc3ccccc3)cc2)cc1 to COc1ccccc1NC(=O)c1ccc(/C=C/C(=O)c2nccn2C)cc1, the TGI falls from over 100 µM to 1.78 µM.

O=C1c2ccccc2C(=O)c2c1ccc1[nH]c(CCl)nc21 and O=[n+]1c(CBr)c(CBr)n([O-])c2ccccc21 are within 1.5-fold of each other in TGI: 4.77 µM for the first, 3.49 µM for the second.

Going from COc1ccccc1NC(=O)c1ccc(/C=C/C(=O)c2nccn2C)cc1 to O=C1c2ccccc2C(=O)c2c1ccc1[nH]c(CCl)nc21, the GI50 rises from 0.644 µM to 1.89 µM (2.9-fold).

O=[n+]1c(CBr)c(CBr)n([O-])c2ccccc21 was tested, and the GI50 was 1.91 µM.

system: IGROV1 ovarian; assay: NCI tumour cell line growth inhibition, 48 h

Compared with COc1ccccc1NC(=O)c1ccc(/C=C/C(=O)c2nccn2C)cc1, O=C1c2ccccc2C(=O)c2c1ccc1[nH]c(CCl)nc21 is 3.9-fold higher in GI50: 0.523 µM for the first, 2.03 µM for the second.

In the case of O=[n+]1c(CBr)c(CBr)n([O-])c2ccccc21, the GI50 is reported as 10.5 µM.

Compared with COc1ccccc1NC(=O)c1ccc(/C=C/C(=O)c2nccn2C)cc1, O=C1c2ccccc2C(=O)c2c1ccc1[nH]c(CCl)nc21 is 4.9-fold higher in TGI: 1.34 µM for the first, 6.59 µM for the second.

O=[n+]1c(CBr)c(CBr)n([O-])c2ccccc21 showed a TGI of 31 µM.

system: K-562 leukemia; assay: NCI tumour cell line growth inhibition, 48 h

Compared with CC(C)CCNC(=O)c1ccc(CNC(=O)/C=C/c2ccc(OCc3ccccc3)cc2)cc1, COc1ccccc1NC(=O)c1ccc(/C=C/C(=O)c2nccn2C)cc1 is lower in TGI: over 100 µM for the first, 11.6 µM for the second.

O=C1c2ccccc2C(=O)c2c1ccc1[nH]c(CCl)nc21 and O=[n+]1c(CBr)c(CBr)n([O-])c2ccccc21 are within 1.5-fold of each other in TGI: 17 µM for the first, 17.2 µM for the second.

Compared with COc1ccccc1NC(=O)c1ccc(/C=C/C(=O)c2nccn2C)cc1, O=C1c2ccccc2C(=O)c2c1ccc1[nH]c(CCl)nc21 is 5.1-fold higher in GI50: 0.588 µM for the first, 2.98 µM for the second.

Compound O=[n+]1c(CBr)c(CBr)n([O-])c2ccccc21 has a GI50 of 3.46 µM.

system: KM12 colon; assay: NCI tumour cell line growth inhibition, 48 h

Going from CC(C)CCNC(=O)c1ccc(CNC(=O)/C=C/c2ccc(OCc3ccccc3)cc2)cc1 to COc1ccccc1NC(=O)c1ccc(/C=C/C(=O)c2nccn2C)cc1, the TGI falls from over 100 µM to 0.872 µM.

Going from O=C1c2ccccc2C(=O)c2c1ccc1[nH]c(CCl)nc21 to O=[n+]1c(CBr)c(CBr)n([O-])c2ccccc21, the TGI rises from 10.8 µM to 31.5 µM (2.9-fold).

Compared with COc1ccccc1NC(=O)c1ccc(/C=C/C(=O)c2nccn2C)cc1, O=C1c2ccccc2C(=O)c2c1ccc1[nH]c(CCl)nc21 is 7.1-fold higher in GI50: 0.44 µM for the first, 3.14 µM for the second.

O=[n+]1c(CBr)c(CBr)n([O-])c2ccccc21 gave a GI50 of 17.1 µM.

system: LOX IMVI melanoma; assay: NCI tumour cell line growth inhibition, 48 h

Compared with CC(C)CCNC(=O)c1ccc(CNC(=O)/C=C/c2ccc(OCc3ccccc3)cc2)cc1, COc1ccccc1NC(=O)c1ccc(/C=C/C(=O)c2nccn2C)cc1 is lower in TGI: over 100 µM for the first, 0.605 µM for the second.

Going from O=C1c2ccccc2C(=O)c2c1ccc1[nH]c(CCl)nc21 to O=[n+]1c(CBr)c(CBr)n([O-])c2ccccc21, the TGI falls from 5.22 µM to 3.48 µM (1.5-fold).

First: COc1ccccc1NC(=O)c1ccc(/C=C/C(=O)c2nccn2C)cc1
Second: O=C1c2ccccc2C(=O)c2c1ccc1[nH]c(CCl)nc21
The GI50 of the first is 7.9-fold lower: 0.278 µM for the first, 2.2 µM for the second.

O=[n+]1c(CBr)c(CBr)n([O-])c2ccccc21 was tested, and the GI50 was 1.8 µM.

system: M14 melanoma; assay: NCI tumour cell line growth inhibition, 48 h

Compared with CC(C)CCNC(=O)c1ccc(CNC(=O)/C=C/c2ccc(OCc3ccccc3)cc2)cc1, COc1ccccc1NC(=O)c1ccc(/C=C/C(=O)c2nccn2C)cc1 is lower in TGI: over 100 µM for the first, 1.31 µM for the second.

O=C1c2ccccc2C(=O)c2c1ccc1[nH]c(CCl)nc21 and O=[n+]1c(CBr)c(CBr)n([O-])c2ccccc21 are within 1.5-fold of each other in TGI: 22.8 µM for the first, 17.6 µM for the second.

Compared with COc1ccccc1NC(=O)c1ccc(/C=C/C(=O)c2nccn2C)cc1, O=C1c2ccccc2C(=O)c2c1ccc1[nH]c(CCl)nc21 is 19-fold higher in GI50: 0.536 µM for the first, 9.97 µM for the second.

With O=[n+]1c(CBr)c(CBr)n([O-])c2ccccc21 the GI50 was 4.65 µM.

system: MALME-3M melanoma; assay: NCI tumour cell line growth inhibition, 48 h

First: COc1ccccc1NC(=O)c1ccc(/C=C/C(=O)c2nccn2C)cc1
Second: O=C1c2ccccc2C(=O)c2c1ccc1[nH]c(CCl)nc21
The GI50 of the first is 4.6-fold lower: 0.616 µM for the first, 2.82 µM for the second.

Work on O=[n+]1c(CBr)c(CBr)n([O-])c2ccccc21 yielded a GI50 of 1.47 µM.

Compared with COc1ccccc1NC(=O)c1ccc(/C=C/C(=O)c2nccn2C)cc1, O=C1c2ccccc2C(=O)c2c1ccc1[nH]c(CCl)nc21 is 6.3-fold higher in TGI: 1.73 µM for the first, 10.9 µM for the second.

O=[n+]1c(CBr)c(CBr)n([O-])c2ccccc21 gave a TGI of 3.15 µM.

system: MCF7 breast; assay: NCI tumour cell line growth inhibition, 48 h

Compared with CC(C)CCNC(=O)c1ccc(CNC(=O)/C=C/c2ccc(OCc3ccccc3)cc2)cc1, COc1ccccc1NC(=O)c1ccc(/C=C/C(=O)c2nccn2C)cc1 is lower in TGI: over 100 µM for the first, 0.977 µM for the second.

First: O=C1c2ccccc2C(=O)c2c1ccc1[nH]c(CCl)nc21
Second: O=[n+]1c(CBr)c(CBr)n([O-])c2ccccc21
The TGI of the first is 3-fold lower: 4.2 µM for the first, 12.4 µM for the second.

Compared with COc1ccccc1NC(=O)c1ccc(/C=C/C(=O)c2nccn2C)cc1, O=C1c2ccccc2C(=O)c2c1ccc1[nH]c(CCl)nc21 is 4.3-fold higher in GI50: 0.404 µM for the first, 1.75 µM for the second.

Compound O=[n+]1c(CBr)c(CBr)n([O-])c2ccccc21 has a GI50 of 3.11 µM.

system: MDA-MB-231 breast; assay: NCI tumour cell line growth inhibition, 48 h

First: CC(C)CCNC(=O)c1ccc(CNC(=O)/C=C/c2ccc(OCc3ccccc3)cc2)cc1
Second: COc1ccccc1NC(=O)c1ccc(/C=C/C(=O)c2nccn2C)cc1
The TGI of the first is higher: over 100 µM for the first, 9.25 µM for the second.

Going from O=C1c2ccccc2C(=O)c2c1ccc1[nH]c(CCl)nc21 to O=[n+]1c(CBr)c(CBr)n([O-])c2ccccc21, the TGI rises from 15.3 µM to 24.5 µM (1.6-fold).

First: COc1ccccc1NC(=O)c1ccc(/C=C/C(=O)c2nccn2C)cc1
Second: O=C1c2ccccc2C(=O)c2c1ccc1[nH]c(CCl)nc21
The GI50 of the first is 4.5-fold lower: 0.835 µM for the first, 3.74 µM for the second.

Work on O=[n+]1c(CBr)c(CBr)n([O-])c2ccccc21 yielded a GI50 of 11.9 µM.

system: MDA-MB-435; assay: NCI tumour cell line growth inhibition, 48 h

First: CC(C)CCNC(=O)c1ccc(CNC(=O)/C=C/c2ccc(OCc3ccccc3)cc2)cc1
Second: COc1ccccc1NC(=O)c1ccc(/C=C/C(=O)c2nccn2C)cc1
The TGI of the first is higher: over 100 µM for the first, 1.3 µM for the second.

Going from O=C1c2ccccc2C(=O)c2c1ccc1[nH]c(CCl)nc21 to O=[n+]1c(CBr)c(CBr)n([O-])c2ccccc21, the TGI rises from 11.8 µM to 25 µM (2.1-fold).

First: COc1ccccc1NC(=O)c1ccc(/C=C/C(=O)c2nccn2C)cc1
Second: O=C1c2ccccc2C(=O)c2c1ccc1[nH]c(CCl)nc21
The GI50 of the first is 6.1-fold lower: 0.548 µM for the first, 3.37 µM for the second.

In the case of O=[n+]1c(CBr)c(CBr)n([O-])c2ccccc21, the GI50 is reported as 12 µM.

system: MDA-N; assay: NCI tumour cell line growth inhibition, 48 h

With CC(C)CCNC(=O)c1ccc(CNC(=O)/C=C/c2ccc(OCc3ccccc3)cc2)cc1 the TGI was over 100 µM.

system: MOLT-4 leukemia; assay: NCI tumour cell line growth inhibition, 48 h

First: CC(C)CCNC(=O)c1ccc(CNC(=O)/C=C/c2ccc(OCc3ccccc3)cc2)cc1
Second: COc1ccccc1NC(=O)c1ccc(/C=C/C(=O)c2nccn2C)cc1
The TGI of the first is higher: over 100 µM for the first, 2.22 µM for the second.

First: O=C1c2ccccc2C(=O)c2c1ccc1[nH]c(CCl)nc21
Second: O=[n+]1c(CBr)c(CBr)n([O-])c2ccccc21
The TGI of the first is 1.8-fold lower: 8.04 µM for the first, 14.7 µM for the second.

First: COc1ccccc1NC(=O)c1ccc(/C=C/C(=O)c2nccn2C)cc1
Second: O=C1c2ccccc2C(=O)c2c1ccc1[nH]c(CCl)nc21
The GI50 of the first is 2.4-fold lower: 0.711 µM for the first, 1.68 µM for the second.

O=[n+]1c(CBr)c(CBr)n([O-])c2ccccc21 was tested, and the GI50 was 3.62 µM.

system: NCI-H226 lung; assay: NCI tumour cell line growth inhibition, 48 h

First: CC(C)CCNC(=O)c1ccc(CNC(=O)/C=C/c2ccc(OCc3ccccc3)cc2)cc1
Second: COc1ccccc1NC(=O)c1ccc(/C=C/C(=O)c2nccn2C)cc1
The TGI of the first is higher: over 100 µM for the first, 1.69 µM for the second.

First: O=C1c2ccccc2C(=O)c2c1ccc1[nH]c(CCl)nc21
Second: O=[n+]1c(CBr)c(CBr)n([O-])c2ccccc21
The TGI of the first is 3.9-fold lower: 7.96 µM for the first, 30.7 µM for the second.

First: COc1ccccc1NC(=O)c1ccc(/C=C/C(=O)c2nccn2C)cc1
Second: O=C1c2ccccc2C(=O)c2c1ccc1[nH]c(CCl)nc21
The GI50 of the first is 4.4-fold lower: 0.588 µM for the first, 2.56 µM for the second.

For O=[n+]1c(CBr)c(CBr)n([O-])c2ccccc21, the GI50 was 11.7 µM.

system: NCI-H23 lung; assay: NCI tumour cell line growth inhibition, 48 h

For CC(C)CCNC(=O)c1ccc(CNC(=O)/C=C/c2ccc(OCc3ccccc3)cc2)cc1, the TGI was over 100 µM.
